# Data: patent US9145381B2, “Derivative of [(3-hydroxy-4-pyron-2-yl)-methyl]-amine and use thereof as anti-neoplastic drugs” (Universita' Degli Studi Di Urbino, priority 2008, dated 2015)
# Experiments:
# Format in all cases: cell-based
# [1] = system: all tested tumour cell lines (U937, NB4, HL-60, JURKAT, U-373MG, HeLa, H-28, RH-4); test: Antiproliferative activity, Trypan blue viability; details: range over the tested cell lines, 72 hours, read-out: IC50 values in the different tested cell lines
# Experimental: In order to evaluate the ability of these compounds to inhibit the proliferation of tumour cells in vitro, eight cell lines were selected, four deriving from haematopoietic tumours and four deriving from solid tumours. […] Each cell line has been grown in the appropriate growth medium at 37° C. […] The hematopoietic populations were diluted with preheated growth medium at 37° C. at a concentration of 1×10^5 cells/ml and aliquots of 2 ml were aliquoted in each single well of 6-well plates. The adhering cells were trypsinized, diluted with preheated growth medium at 37° C. and 0.5×10^5 cells were aliquoted in each single well of 6-well plates. […] Both compounds were diluted in distilled water and the treatments were repeated every 24 hours.
# H-28 cells = test: Cell cycle, propidium iodide cytofluorimetric analysis; details: H-28, 72 hour treatment
# Experimental: (§1) FIG. 5: Apoptosis induced by L1 after treatment for 72 hours at a concentration of 50 μM. FIGS. 6-13: Effects of L1 on the percentages of the different phases of the cell cycle after a 72 hour treatment at different concentrations. FIG. 14: Apoptosis induced by L9 after a 72 hour treatment at a concentration of 5 μM. FIGS. 15-22: Effects of L9 on the percentages of the different phases of the cell cycle after a 72 hour treatment at different concentrations.
# (§2) The effects of L1 and L9 on the progression of the cell cycle and on its hypothetical ability to induce the apoptotic process were evaluated by cytofluorimetric analysis by means of propidium iodide staining of all of the previously tested cell lines. Cell treated with different concentrations of the two compounds, as previously disclosed, have been harvested and washed with cold phosphate buffer (1×PBS). The cells were resuspended in cold 70% ethanol and fixed at +4° C. for 24 hours. All of the samples were then centrifuged at 1300 rpm at +4° C. for 3 minutes and then resuspended in a solution containing propidium iodide (1×PBS; 0.1% Triton X-100, 0.1% sodium citrate, 250 μg/ml RNasi A, 50 μg/ml propidium iodide) and, after 24 hours of incubation at +4° C., a minimum of 1×10^4 events were acquired at the BD FACScan cytofluorimeter (BD Biosciences, San Jose, Calif., USA). The acquisitions were analysed by a FlowJo 5.7.2 software (Tree Star, Inc., Ashland, Oreg., USA) in order to determine the percentage of cells in different phases of the cell cycle and displaying hypoploid conditions (Apoptotic cells). The induction of programmed cell death was computed as the difference between the percentage of hypodiploid cells in treated and non-treated samples.
# HL-60 cells = test: as above; details: HL-60 (printed H1-60 / JL-60), 72 hour treatment
# Experimental: as §1, §2
# HeLa cells = test: as above; details: 72 hour treatment
# Experimental: as §1, §2
# JURKAT cells = test: as above; details: 72 hour treatment
# Experimental: as §1, §2
# tumour cell lines = test: Cell cycle and apoptosis, propidium iodide cytofluorimetric analysis; details: 72 hour treatment; for interruption of the cell cycle: tested tumour cell lines in general, different concentrations
# Experimental: as §1, §2
# U937 cells = test: Fragmentation of genomic DNA, agarose gel electrophoresis; details: U937, 72 hours; L1 25, 50, 100 μM; L9 2.5, 5, 10 μM
# Experimental: The cells were treated for 72 hours with L1 and L9 at the concentrations shown in the Figure, the genomic DNA was then extracted, separated on a 2% agarose gel and stained with ethidium bromide.
# The induction of apoptosis by compounds L1 and L9 has further been confirmed with the analysis of the fragmentation of the genomic DNA carried out by electrophoresis on an agarose gel. U937 cells treated with L1 (non-treated as a control) at concentrations of 25, 50, 100 μM and L9 at concentrations of 2.5, 5, 10 μM for 72 hours were harvested (about 2×10^6 cells), washed with cold 1×PBS and incubated in 2 ml of 1×TBS, 0.5% Tween20, 1 mM EDTA for 30 minutes at +4° C. After being centrifuged at 1200 rpm, for 5 minutes at +4° C., the cells were incubated in 0.5 ml of a solution at 0.1% SDS for 30 minutes at room temperature. The genomic DNA was then extracted by using a QIAquick Gel Extraction Kit (Qiagen, Hilden, Germany), electrophoretically separated by means of a 2% agarose gel and stained with ethidium bromide.
# RH-4 cells = test: Cell cycle, propidium iodide cytofluorimetric analysis; details: RH-4, 72 hour treatment
# Experimental: as §1, §2
# [2] = system: cell lines deriving from solid tumours (U-373MG, HeLa, H-28, RH-4); test: Antiproliferative activity, Trypan blue viability; details: cells deriving from solid tumours, 72 hours
# Experimental: (§3) FIGS. 3 and 4 show a diagram with the inhibiting concentrations (IC50) of L1 (FIG. 3) and L9 (FIG. 4) in different tumour cell lines. Cells in an exponential growth phase were treated for 72 hours with L1 and L9 and then harvested and stained with Trypan blue in order to determine viability. The values of IC50 have been computed for each compound as the concentration that can determine a 50% reduction in viable cells with respect to a non-treated control.
# (§4) In order to evaluate the ability of these compounds to inhibit the proliferation of tumour cells in vitro, eight cell lines were selected, four deriving from haematopoietic tumours and four deriving from solid tumours. The tested hematopoietic lines comprise three myeloid tumour cell lines (U937—acute monocytic leukaemia, NB4—acute promyelocytic leukaemia, HL-60—acute myeloid leukaemia) and a lymphoid tumour cell line (JURKAT—T cell leukaemia), while cell lines deriving from multiform glioblastoma (U-373MG), from uterine cervix cancer (HeLa), from malignant pleural mesothelioma (H-28) and from rhabdomyosarcoma (RH-4) have been used as lines representative of solid tumours. Each cell line has been grown in the appropriate growth medium at 37° C. (RPMI 1640 for the hematopoietic lines and DMEM for the adhering cells deriving from solid tumours—Cambrex, Walkersville, Md., USA) added with 10% FBS, 1% glutamine, 100 IU/ml penicillin, 100 μg/ml streptomycin in a highly humidified atmosphere at 5% CO2. The hematopoietic populations were diluted with preheated growth medium at 37° C. at a concentration of 1×10^5 cells/ml and aliquots of 2 ml were aliquoted in each single well of 6-well plates. The adhering cells were trypsinized, diluted with preheated growth medium at 37° C. and 0.5×10^5 cells were aliquoted in each single well of 6-well plates. The cells in an exponential growth phase were treated with different concentrations of L1 or L9. Both compounds were diluted in distilled water and the treatments were repeated every 24 hours. 72 hours after starting the treatments, cell viability was evaluated by means of Trypan blue staining and the inhibiting concentration (IC50) was computed for each cell line as the concentration allowing to reduce by 50% the number of viable cells, with respect to a non-treated control.
# [3] = system: hematopoietic cells (U937, NB4, HL-60, JURKAT); test: Antiproliferative activity, Trypan blue viability; details: 72 hours
# Experimental: as §3, §4
# [4] = system: HeLa cells (uterine cervix cancer); test: Antiproliferative activity, Trypan blue viability; details: 72 hours, treatments repeated every 24 hours, maximum over the lines
# Experimental: as §3, §4
# [5] = system: RH-4 cells (rhabdomyosarcoma); test: Antiproliferative activity, Trypan blue viability; details: 72 hours, treatments repeated every 24 hours, minimum over the lines
# Experimental: as §3, §4
structure (smiles),measurement,setting,value
"CN1CCN(Cc2occc(=O)c2O)CCN(C)CCN(Cc2occc(=O)c2O)CC1 [Compound L9, 4(N),10(N)-bis[(3-hydroxy-4-pyron-2-yl)methyl]-1,7-dimethyl-1,4,7,10-tetraazacyclododecane]",IC50,[1],1.45 to 2.31 µM
same,block of the cell cycle,H-28 cells,moderate block in phase G1
same,block of the cell cycle,HL-60 cells,moderate block in phase G1
same,block of the cell cycle,HeLa cells,stop especially in phase S
same,block of the cell cycle,JURKAT cells,stop especially in phase S
same,interruption of the cell cycle,tumour cell lines,mainly blocked in phase G2
same,fragmentation of genomic DNA,U937 cells,concentration-dependent internucleosomic fragmentation
"CN(CCN(C)Cc1occc(=O)c1O)Cc1occc(=O)c1O [Compound L1, N,N′-bis[(3-hydroxy-4-pyron-2-yl)methyl]-N,N′-dimethylethylendiamine]",block of the cell cycle,HL-60 cells,mainly blocked in phase S
same,block of the cell cycle,HeLa cells,mainly blocked in phase S
same,block of the cell cycle,JURKAT cells,severe block in G2
same,block of the cell cycle,RH-4 cells,severe block in G2
same,IC50,[2],22 µM
same,IC50,[3],10.4 µM
same,IC50,[4],30.5 µM
same,IC50,[5],4.49 µM
same,interruption of the cell cycle,tumour cell lines,interrupt the cell cycle of tumour cells in phase S and G2 in a concentration-dependent manner
same,induction of apoptosis (hypodiploid cells),"tumour cell lines; tumour cells, propidium iodide",induce apoptosis
same,fragmentation of genomic DNA,U937 cells,concentration-dependent internucleosomic fragmentation
